Values joined by “and” are separate entries in the source; they are usually repeats but may differ in a detail not shown here. Equal values may be shown once.
B1: PK1: Recombinant human prokineticin-1 expressed in HEK 293 cells, FLAG cleaved; mixture of full-length ligand and four C-terminal residue truncated product (protein, UniProt P58294 20-105, looked up)
Prokineticin-1: AVITGACERDVQCGAGTCCAISLWLRGLRMCTPLGREGEECHPGSHKVPFFRKRKHHTCPCLPNLLCSRFPDGRYRCSMDLKNINF
modifications: mixture with C-terminal 4-residue truncated form
notes: Recombinant human prokineticin-1 expressed in HEK 293 cells, FLAG cleaved; mixture of full-length ligand and four C-terminal residue truncated product

Tests used:
[1] = molecular target: T1, HEK 293 GPR73 (prokineticin 1 receptor) expressing cells (Homo sapiens, UniProt Q8TCW9); assay: PK1 functional assay: screening for PK1 antagonists on the FLIPR (calcium mobilization); assay type: cell-based; conditions: HEK 293 GPR73 cells; for Ca^2+ Mobilization % Inh @10 μM: 10 μM compound; for IC50: PK1 ligand at EC50, read-out: Ca^2+ Mobilization IC50; for inhibition at 10 µM: HEK293, 10 μM compound, read-out: Ca^2+ Mobilization % Inh @10 μM
T1 construct: expressed in transfected cells; host or cells: HEK 293
T1 sequence (Q8TCW9 whole entry): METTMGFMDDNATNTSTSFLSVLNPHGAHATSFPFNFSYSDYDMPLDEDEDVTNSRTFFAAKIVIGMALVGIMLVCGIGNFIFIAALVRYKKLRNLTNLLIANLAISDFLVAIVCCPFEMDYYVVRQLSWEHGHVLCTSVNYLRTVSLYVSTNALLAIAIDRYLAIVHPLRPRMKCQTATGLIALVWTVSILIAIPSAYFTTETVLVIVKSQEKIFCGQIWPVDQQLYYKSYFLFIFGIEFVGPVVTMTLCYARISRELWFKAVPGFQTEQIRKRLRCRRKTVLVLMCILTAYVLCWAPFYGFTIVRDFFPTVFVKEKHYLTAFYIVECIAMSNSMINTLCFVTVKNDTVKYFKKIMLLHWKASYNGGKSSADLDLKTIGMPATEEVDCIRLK
Experimental: Screening Procedure for PK1 Antagonists on the Fluorometric Imaging Plate Reader (FLIPR)
At a time of 24 h prior to running the assay, in cell culture media (DMEM containing high Glucose and L-glutamine, 10% FBS, 1% Pen/Streptomycin, 1% Sodium Pyruvate, 20 mM HEPES, Zeocin 200 mg/L), 100 μL of 1.3*10^6/ml HEK 293 GPR73 (prokineticin 1 receptor) expressing cells were plated in a 96 well poly-d-lysine coated plate (Costar), and incubated at 37 C and 5% CO2. On the day in which the assay was run, the media was removed and 200 μL of 5× Calcium Plus Dye (Molecular Devices) which was previously resuspended with 200 mL of assay buffer [HBSS w/Ca^2+ and Mg^2+ w/o phenol red, 20 mM HEPES, 0.1% BSA, 10 mL probenecid (710 mg probenecid in 5 mL of 1N NaOH, to which was then added 5 mL HBSS containing 20 mM HEPES)] was added to each well of the 96-well plate. The plate was incubated at 37 C and 5% CO2 for 30 min in dark. The plate was removed and allowed to reach RT for 15 min in the dark. The assay was then run on the FLIPR. […] Baseline is described as the amount of relative fluorescence read when buffer alone is added to cells. Baseline was subtracted from all wells. Percent of control was calculated as follows: (Baseline subtracted well value is divided by baseline subtracted max value)*100. Percent inhibition is 100 minus the percent of control value.
IC50 values were calculated using GraphPad Prism.

PK1 receptor = PK1 receptor (Rattus norvegicus, UniProt Q8R416); assay: Inhibition of PK1-evoked increase in Isc by PK1 receptor antagonists in Ussing-type ion flux chambers; conditions: test compound 1 μM, 15 min incubation, PK1 10 and 100 nM cumulative
Sequence of PK1 receptor (Q8R416 whole entry): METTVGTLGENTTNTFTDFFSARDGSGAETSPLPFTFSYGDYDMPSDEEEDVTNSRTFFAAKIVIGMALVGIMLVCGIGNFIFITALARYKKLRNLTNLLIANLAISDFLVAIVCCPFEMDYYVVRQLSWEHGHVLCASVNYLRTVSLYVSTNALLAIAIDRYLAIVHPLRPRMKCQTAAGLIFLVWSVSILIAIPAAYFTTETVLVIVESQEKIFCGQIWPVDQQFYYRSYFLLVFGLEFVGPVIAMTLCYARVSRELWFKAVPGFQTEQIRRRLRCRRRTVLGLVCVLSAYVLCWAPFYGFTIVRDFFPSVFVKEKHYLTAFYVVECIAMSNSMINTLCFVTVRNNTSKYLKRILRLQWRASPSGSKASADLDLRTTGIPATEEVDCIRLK
From the text: Methodology. The basic methodology for Ussing-type ion flux chambers used in these studies was the same as that described in detail above with the following modifications to the experimental protocol.

[2] = tested on: ileum mucosal tissues from PK1 receptor knock-out mice; assay: PK1-evoked Isc in ileum mucosal tissues from PK1 receptor knock-out mice; conditions: exogenous PK1 peptide, PK1 receptor knock-out mice ileum mucosa
rat ileal tissues = assay: Effect of PK1 on secretion and gut mucosal ion transport (short-circuit current, Ussing-type flux chamber)

| Molecule | Ca^2+ Mobilization % Inh @10 μM [1] | IC50 [1] | inhibition at 10 µM [1] [%] | also measured |
| --- | --- | --- | --- | --- |
| COc1ccc(Cn2c(NCCNC(=N)NCCc3ccccn3)nc(=O)n(Cc3ccc(F)cc3)c2=O)cc1 [Cpd 105] | 100% | 89 nM |  |  |
| COc1ccc(Cn2c(NCCONC(=N)N)nc(=O)n(Cc3ccccc3)c2=O)cc1 [Cpd 10] | 33% |  |  |  |
| N-{2-[5-Benzyl-1-(4-methoxy-benzyl)-4,6-dioxo-1,4,5,6-tetrahydro-[1,3,5]triazin-2-ylamino]-ethyl}-oxyguanidine [Cpd 27] | 55% | 1970 nM |  |  |
| COc1ccc(Cn2c(NCCNC(=N)N)nc(=O)n(Cc3ccccc3)c2=O)cc1 [Cpd 2] |  |  |  | inhibition of the PK1 evoked increase in Isc (PK1 receptor): successfully achieved |
| [H]/N=C(\N)NCCNc1nc(=O)n(Cc2ccc(OC(C)(C)C)cc2)c(=O)n1Cc1ccc(OC)cc1 [Cpd 109] |  | 129 nM | 99 |  |
| COc1ccc(Cn2c(NCCNC(=N)N)nc(=O)n(Cc3ccc(F)cc3)c2=O)cc1 [Cpd 17, N-{2-[5-(4-Fluoro-benzyl)-1-(4-methoxy-benzyl)-4,6-dioxo-1,4,5,6-tetrahydro-[1,3,5]triazin-2-ylamino]-ethyl}-guanidine] |  |  |  | inhibition of the PK1 evoked increase in Isc (PK1 receptor): successfully achieved |
| COc1ccc(Cn2c(N[C@@H]3CCCC[C@H]3NC(=N)N)nc(=O)n(Cc3ccc(Cl)c(Cl)c3)c2=O)cc1 [Cpd 47] |  | 57 nM | 101 |  |
| COc1ccc(Cn2c(NCCN(C(=N)N)c3ccccn3)nc(=O)n(Cc3ccc(F)cc3)c2=O)cc1 [Cpd 104, N-{2-[5-(4-Fluoro-benzyl)-1-(4-methoxy-benzyl)-4,6-dioxo-1,4,5,6-tetrahydro-[1,3,5]triazin-2-ylamino]-ethyl}-N-pyridin-2-yl-guanidine] |  | 11 nM |  | Ca^2+ Mobilization % Inh @10 μM ([1]; 10 µM): 99% and 102% |
| COc1ccc(Cn2c(NCCNC(=N)NC(C)C)nc(=O)n(Cc3ccc(Cl)c(Cl)c3)c2=O)cc1 [Cpd 58, N-{2-[5-(3,4-Dichloro-benzyl)-1-(4-methoxy-benzyl)-4,6-dioxo-1,4,5,6-tetrahydro-[1,3,5]triazin-2-ylamino]-ethyl}-N′-isopropyl-guanidine] |  | 7 nM and 16 nM (2×) | 102 | inhibition of the PK1 evoked increase in Isc (PK1 receptor): successfully achieved; Ca^2+ Mobilization % Inh @10 μM ([1]; 10 µM): 99% and 98% |
| N=C(N)NCCNc1nc(=O)n(Cc2ccccc2)c(=O)n1Cc1ccc([N+](=O)[O-])cc1 [Cpd 9] |  | > 10000 nM | 35 |  |
| COc1ccc(Cn2c(NCCNC(=N)Nc3ccc(C#N)cc3)nc(=O)n(Cc3ccc(F)cc3)c2=O)cc1 [Cpd 90, N-(4-Cyano-phenyl)-N′-{2-[5-(4-fluoro-benzyl)-1-(4-methoxy-benzyl)-4,6-dioxo-1,4,5,6-tetrahydro-[1,3,5]triazin-2-ylamino]-ethyl}-guanidine] |  | 31 nM and 43 nM (2×) | 100 | Ca^2+ Mobilization % Inh @10 μM ([1]; 10 µM): 100% and 101% |
| COc1ccc(Cn2c(NCCNC(=N)Nc3ccccc3F)nc(=O)n(Cc3ccc(F)cc3)c2=O)cc1 [Cpd 118, N-{2-[5-(4-Fluoro-benzyl)-1-(4-methoxy-benzyl)-4,6-dioxo-1,4,5,6-tetrahydro-[1,3,5]triazin-2-ylamino]-ethyl}-N′-(2-fluoro-phenyl)-guanidine] |  | 6 nM | 98 | Ca^2+ Mobilization % Inh @10 μM ([1]; 10 µM): 102% |
| COc1ccc(Cn2c(NCCNC(=N)NC(=O)c3ccccc3)nc(=O)n(Cc3ccc(F)cc3)c2=O)cc1 [Cpd 134, N-Benzoyl-N′-{2-[5-(4-fluoro-benzyl)-1-(4-methoxy-benzyl)-4,6-dioxo-1,4,5,6-tetrahydro-[1,3,5]triazin-2-ylamino]-ethyl}-guanidine] | 97, 97% | 19 nM and 28 nM | 97 |  |
| COc1ccc(Cn2c(NCCNC(=N)N)nc(=O)n(CC3CCCC3)c2=O)cc1 [Cpd 124] | 74% | 1560 nM |  |  |
| COc1ccc(Cn2c(NCCNC(=N)NCCc3ccccc3)nc(=O)n(Cc3ccc(Cl)c(Cl)c3)c2=O)cc1 [Cpd 65] | 88% | 485 nM |  |  |
| B1 |  |  |  | change in Isc compared to wild-type littermates [2]: failed to elicit a significant change in Isc; increase in Isc from baseline (rat ileal tissues; 10 nM PK1, […], n=33 tissues from 22 rats): 13.5±2. μA/cm^2; increase in Isc from baseline (rat ileal tissues; 100 nM PK1, […], n=42 tissues from 29 rats): 28.7±2.9 μA/cm^2; concentration at which the maximal PK1-evoked response occurred (rat ileal tissues; […]): 100 nM; effect on tissue conductance (G) (rat ileal tissues; […]): no significant effect; time for Isc to decline back toward baseline (rat ileal tissues; basolateral addition, […]): 10 to 15 min; time to peak Isc after single-dose addition (rat ileal tissues; basolateral addition, […]): 2 to 4 min; pro-secretory effect in the presence of Atropine (rat ileal tissues; blockade of muscarinic receptors): not blocked; pro-secretory effect in the presence of Tetrodotoxin (TTX) (rat ileal tissues; nerve conduction toxin present): not blocked |
